“And” between values parts separate entries of the source, which are not always exact repeats. Equal values may be shown once. Blank lines part the entries; values can stand above or below the compound they belong to.
Legend:
[1] = molecular target: T1, α-Synuclein (αS) aggregation (Homo sapiens, UniProt P37840); assay: Thioflavin T (ThT) dye-based αS aggregation assay (de novo); format: biochemical; conditions: for ThT intensity relative to Synuclein alone (=1), Average / ThT intensity relative to Synuclein alone (=1), Trial 1-3: 100 µM αS, four days, equimolar; for ThT intensity relative to Synuclein alone (=1), Trial 1-3 / Relative ThT intensity of αS aggregation: individual trials; for remaining activity at 100 µM: 96 h, pH 6.5, 100 μM αS, 1×PBS pH 6.5, four days, ligand:αS equimolar, read-out: ThT signal/intensity relative to αS alone (100%); for Relative ThT intensity of αS aggregation, Average / Relative ThT intensity of αS aggregation: Synuclein alone about 1; for ThT intensity (raw), individual trials: αS aggregation after four days, NS132 derivatives equimolar (Fig. 2r)
T1 construct: made in house; host or cells: E. coli BL21(DE3)
Experimental: We used a 2D FAST approach in OPs to identify potent antagonists of the aggregation of αS. In this approach, we start with a library of monopyridyls with different functional groups. The library of monopyridyls was synthesized using 2-chloro-6-methyl-3-nitropyridine as a common precursor, which was treated with primary alcohols with diverse side chain functionalities via a one-pot reaction (Fig. 1B, a and see Supplementary information for synthetic details). […] We selected the side chains containing hydrophobic, polar, positively charged, and negatively charged functional groups, which mimic the side chains of the amino acids (Fig. 1C). […] The monopyridyl library was screened against the aggregation of 100 μM αS at an equimolar ratio using Thioflavin T (ThT) dye-based aggregation assay (Fig. 1B, b). […] The chloro-dipyridyl was reacted with a library of primary amines/thiols to synthesize a library of dipyridyls (Fig. 1B, e) using a one-pot reaction. […] However, a few dipyridyls required column chromatography to separate them from the starting material side chains because of their very high boiling point (7 out of 21 dipyridyls required column, Supplementary Fig. 1). […]
Aggregation Kinetics were measured according to a previously described protocol. […] The solutions were placed in a ThermoMixer (Eppendorf, Hamberg, Germany) at 37 °C with constant shaking at 1300 rpm (rpm). At different time points, 5 μL aliquots of each αS solution were added to 95 μL PBS containing 50 μM Thioflavin T (ThT) dye in a Costar black 96 well plate (Corning Inc., Kennebunk, ME). ThT fluorescence intensity was measured (λex = 450 nm and λem = 490 nm) on an Infinite M200PRO plate reader (Tecan, Männedorf, Switzerland), and plotted against time to give a sigmoidal curve typical of amyloid aggregation. For the single point ThT aggregation, 100 μM αS, in the absence and presence of ligands, was aggregated under the described conditions and the ThT fluorescence was reported at 96 h. The reported ThT intensity values are the average of each experiment conducted in triplicate, with the error bars representing the standard deviations or standard error of the mean (s.e.m.) as described in the main manuscript.

αS aggregation = molecular target: T2, αS aggregation (Homo sapiens, UniProt P37840); assay: SDS-PAGE gel shift assay of soluble and insoluble αS fractions; format: biochemical; conditions: for αS band intensity, Total / Total (αS, SDS-PAGE gel shift), Trial 1-3: individual trials; for Total (αS, SDS-PAGE gel shift), Average: average of 3 trials; for Total (αS, SDS-PAGE gel shift), Average / Total (αS, SDS-PAGE gel shift), Trial 1-3: sheet S9D
T2 construct: made in house; host or cells: E. coli BL21(DE3)
Source text: The inhibition of αS aggregation by NS41 was also confirmed by TEM images, which show an abundance (Supplementary Fig. 3a) and low amount (Supplementary Fig. 3b) of αS fibers in the absence and presence of NS41, respectively. We used SDS-PAGE (Sodium dodecyl sulfate polyacrylamide gel electrophoresis) as a complementary assay to validate ThT results and to further characterize the antagonist activity of the monopyridyls against αS aggregation. We used a total of four monopyridyls with varying antagonist activity against αS aggregation for the SDS-PAGE assay. The solutions of αS (±monopyridyls) were centrifuged and the soluble and insoluble fractions were subjected to SDS-PAGE analysis as reported earlier (Fig. 2d, Supplementary Fig. 4a, see details in methods section). The band intensities of the gels in SDS-PAGE assay were quantified using ImageJ software. In the absence of ligands, ~12% of αS was found in the soluble fraction and the rest was found in the insoluble fraction (Fig. 2d, Supplementary Fig. 4a, b). In the presence of NS41 at molar ratios of 1:1 and 2:1 (NS41:αS), 48% and 73% of αS protein were found in the soluble fraction, respectively, and the rest of αS protein was found in the insoluble fraction (Fig. 2d, Supplementary Fig. 4a, b). […] The antagonist activity of the monopyridyls corroborated well from both ThT and the SDS-PAGE assays (Fig. 2a–d, Supplementary Fig. 4a, b). The higher the antagonist activity of monopyridyls against αS aggregation, the lower the ThT intensity and the higher the amount of αS remained in the soluble fraction (Fig. 2a–d, Supplementary Fig. 4a, b). […] It is important to note that NS41 contains a carboxyl (COOH) functional group side chain. […] We have also shown in that work that the foldamer binds to the N-terminus of αS because of its negatively charged COOH functional group interaction with the positively charged lysine residues of αS[24]. […] Additionally, we have also shown that the OPs with the COOH functional group are very effective inhibitors of aggregation of other amyloid proteins that contain lysine amino acid via the formation of salt bridges[30]–[34].
An αS solution (100 µM) was prepared in PBS with or without ligands and shaken ([…], 37 °C) until the fluorescence plateaued, as observed using the ThT aggregation assay, indicative of the aggregation of αS as a control (four days for most experiments unless otherwise mentioned). The solutions were separated into soluble and insoluble fractions by centrifugation at 22,000 × g for 20 min. The fractions were diluted in 2×Laemmli protein sample loading buffer (Containing 2.1% SDS, Bio-rad, Hercules, CA), boiled at 95 °C for 5 min, and ran on a 12% Mini-PROTEAN precast protein gel (Bio-rad, Hercules, CA). The gel was visualized using ChemiDoc MP Imaging System (Bio-rad, Hercules, CA) and band intensity was quantified using Image Lab image acquisition and analysis software (Bio-rad, Hercules, CA). Densitometry values were averaged from three technical replicates and reported with the error bars representing their standard deviations.

Compound: Cc1ccc(NC(=O)c2ccc([N+](=O)[O-])c(NCCc3c[nH]c4ccccc34)n2)c(OCC(=O)O)n1 [NS72]
ThT intensity relative to Synuclein alone (=1), Average [1]: 0.08383
ThT intensity relative to Synuclein alone (=1), Trial 1-3 [1]: 0.08532 and 0.05997 and 0.1062

Compound: Cc1ccc(NC(=O)c2ccc(NC(=O)c3ccc([N+](=O)[O-])c(Cl)n3)c(NCC3CCCCC3)n2)c(OCC(=O)O)n1 [NS122]
αS band intensity, Total, Average (αS aggregation; sheet S7B): 100
αS band intensity, Total (αS aggregation; sheet S7B): 101.8 and 101.7 and 96.5
remaining activity at 100 µM [1]: 30%
Relative ThT intensity of αS aggregation, Average ([1]; sheet S7A): 0.339
Relative ThT intensity of αS aggregation ([1]; sheet S7A): 0.3017 and 0.3699 and 0.3455
ThT intensity (raw), individual trials [1]: 5423 and 5518 and 5332

Compound: Cc1ccc(NC(=O)c2ccc(NC(=O)c3ccc([N+](=O)[O-])c(NCCc4c[nH]c5ccccc45)n3)c(NCC3CCCCC3)n2)c(OCC(=O)OC(C)(C)C)n1 [NS132-P]
amount of αS in the insoluble fraction (αS aggregation; 100 µM αS, four days, equimolar): 84%
Total (αS, SDS-PAGE gel shift), Average (αS aggregation; NS132-P 0.5 eq.): 0.8767
Total (αS, SDS-PAGE gel shift), Trial 1-3 (αS aggregation; NS132-P 0.5 eq.): 0.83 and 0.85 and 0.95
Total (αS, SDS-PAGE gel shift), Average (αS aggregation; NS132-P 1.0 eq.): 1.02
Total (αS, SDS-PAGE gel shift), Trial 1-3 (αS aggregation; NS132-P 1.0 eq.): 1.069 and 1.01 and 0.98
remaining activity at 100 µM [1]: 80%
ThT intensity (raw), individual trials [1]: 15241 and 16712 and 15019

Compound: Cc1ccc([N+](=O)[O-])c(OCC2CCCCC2)n1 [RD222]
αS band intensity, Total, Average (αS aggregation; sheet S4B): 100
αS band intensity, Total (αS aggregation; sheet S4B): 97.5 and 99 and 103.5
ThT intensity relative to Synuclein alone (=1), Average [1]: 0.6644
ThT intensity relative to Synuclein alone (=1), Trial 1-3 [1]: 0.6754 and 0.635 and 0.6826

Results, then the compound that gave them:

ThT intensity relative to Synuclein alone (=1), Average [1]: 0.4588
ThT intensity relative to Synuclein alone (=1), Trial 1-3 [1]: 0.4925 and 0.4832 and 0.4007
remaining activity at 100 µM [1]: 45.9%
Compound: Cc1ccc(NC(=O)c2ccc(NC(=O)c3ccc([N+](=O)[O-])c(NCC4CCCCC4)n3)c(NCC3CCCCC3)n2)c(OCC(=O)O)n1 [NS126]

αS band intensity, Total, Average (αS aggregation; sheet S5B): 100
αS band intensity, Total (αS aggregation; sheet S5B): 103.4 and 101 and 95.6
ThT intensity relative to Synuclein alone (=1), Average [1]: 0.7268
ThT intensity relative to Synuclein alone (=1), Trial 1-3 [1]: 0.8429 and 0.6915 and 0.6459
Relative ThT intensity of αS aggregation, Average ([1]; sheet S5A): 0.7268
Relative ThT intensity of αS aggregation ([1]; sheet S5A): 0.8429 and 0.6915 and 0.6459
Compound: Cc1ccc(NC(=O)c2ccc([N+](=O)[O-])c(NCCc3ccc(O)cc3)n2)c(OCC(=O)O)n1 [NS160]

ThT intensity relative to Synuclein alone (=1), Average [1]: 0.02443
ThT intensity relative to Synuclein alone (=1), Trial 1-3 [1]: 0.02302 and 0.02387 and 0.02641
remaining activity at 100 µM [1]: 2.7%
Compound: Cc1ccc(NC(=O)c2ccc(NC(=O)c3ccc([N+](=O)[O-])c(NCCc4ccc(O)cc4)n3)c(NCC3CCCCC3)n2)c(OCC(=O)O)n1 [NS168]
